Reference: US6613718B2, “Aryl ether derivatives and processes for their preparation and herbicidal and desiccant compositions containing them” (Ishihara Sangyo Kaisha, Ltd., priority 2001, dated 2003)

Key:
Assay type in all cases: in vivo
[1] = system: upland rice (Oryza sp., var.Tebonnet, RICE); assay: Pre-emerge greenhouse screening, crop safety (phytotoxicity rating); conditions: 14 days after application
Excerpt: (§1) A standard greenhouse herbicide activity screening system was used to evaluate the herbicidal efficacy and crop safety of these test compounds. Seven broadleaf weed species including redroot pigweed (Amaranthus retroflexus, AMARE), velvetleaf (Abutilon theophrasti, ABUTH), sicklepod (Cassia obtusifolia, CASOB), ivyleaf morningglory (Ipomoea hederacea, IPOHE), lambsquarters (Chenopodium album, CHEAL), common ragweed (Ambrosia artemisiifolia L., AMBEL), and cocklebur (Xanthium strumarium, XANST) were used as test species. Four grass weed species including green foxtail (Setaria viridis, SETVI), barnyardgrass (Echinochloa crus-galli, ECHCG), johnsongrass (Sorghum halepense, SORHA), and large crabgrass (Digitaria sanguinalis, DIGSA) were also used. In addition, three crop species, field corn (Zea mays L., var. Dekalb 535, CORN), soybean (Glycine max L., var. Pella 86, SOY), and upland rice (Oryza sp., var.Tebonnet, RICE) were included.
(§2) All plants were grown in 10 cm square plastic pots which were filled with a sandy loam soil mix. For pre-emerge tests, seeds were planted one day prior to application of the test compounds. For post-emerge tests, seeds were planted 8-21 days prior to the test to allow emergence and good foliage development prior to application of the test substances. At the time of the post-emerge application, plants of all species were usually at the 2-3 leaf stage of development.
(§3) All test compounds were dissolved in acetone and applied to the test units in a volume of 187 1/ha. Test materials were applied at rates ranging from 15 g ai/ha to 1000 g ai/ha using a track sprayer equipped with a TJ8001E even flow flat fan spray nozzle. Plants were arranged on a shelf so that the top of the canopy (post-emerge) or top of the soil surface (pre-emerge) was 40-45 cm below the nozzle. Pressurized air was used to force the test solution through the nozzle as it was mechanically advanced (via electrically driven chain drive) over the top of all test plants/pots. This application simulates a typical commercial field herbicide application.
(§4) In the post-emerge test, a commercial non-ionic surfactant was also included (0.25% v/v) to enhance wetting of the leaf surfaces of target plants. Immediately after application, test units of the pre-emerge applications were watered at the soil surface to incorporate the test materials. Subsequently, these test units were bottom-watered. Post-emerge test units were always bottom-watered.
(§5) At 14 days after application of the test materials, phytotoxicity ratings were recorded. A rating scale of 0-100 was used as previously described in Research Methods in Weed Science, 2nd edition, B. Truelove, Ed., Southern Weed Science Society, Auburn University, Auburn, Ala., 1977. Briefly, “0” corresponds to no damage and “100” corresponds to complete death of all plants in the test unit. This scale was used both to determine efficacy against weed species and damage to crop species. Herbicide activity data for various compounds of this invention, which are shown by compound No. in Tables I-VI, are shown in Tables VIII-IX.

[2] = system: soybean (Glycine max L., var. Pella 86, SOY); assay: as above; conditions: 14 days after application
Excerpt: as §1, §2, §3, §4, §5

[3] = system: field corn (Zea mays L., var. Dekalb 535, CORN); assay: as above; conditions: 14 days after application
Excerpt: as §1, §2, §3, §4, §5

[4] = system: field corn (Zea mays L., var. Dekalb 535, CORN); assay: Post-emerge greenhouse screening, crop safety / corn selectivity (phytotoxicity rating); conditions: 14 days after application
Excerpt: as §1, §2, §3, §4, §5

[5] = system: redroot pigweed (Amaranthus retroflexus, AMARE); assay: Pre-emerge greenhouse herbicide activity screening, phytotoxicity rating; conditions: 14 days after application
Excerpt: as §1, §2, §3, §4, §5

[6] = system: common ragweed (Ambrosia artemisiifolia L., AMBEL); assay: as above; conditions: 14 days after application
Excerpt: as §1, §2, §3, §4, §5

[7] = system: ivyleaf morningglory (Ipomoea hederacea, IPOHE); assay: as above; conditions: 14 days after application
Excerpt: as §1, §2, §3, §4, §5

[8] = system: johnsongrass (Sorghum halepense, SORHA); assay: as above; conditions: 14 days after application
Excerpt: as §1, §2, §3, §4, §5

[9] = system: velvetleaf (Abutilon theophrasti, ABUTH); assay: as above; conditions: 14 days after application
Excerpt: as §1, §2, §3, §4, §5

[10] = system: large crabgrass (Digitaria sanguinalis, DIGSA); assay: as above; conditions: 14 days after application
Excerpt: as §1, §2, §3, §4, §5

[11] = system: lambsquarters (Chenopodium album, CHEAL); assay: as above; conditions: 14 days after application
Excerpt: as §1, §2, §3, §4, §5

[12] = system: sicklepod (Cassia obtusifolia, CASOB); assay: as above; conditions: 14 days after application
Excerpt: as §1, §2, §3, §4, §5

[13] = system: barnyardgrass (Echinochloa crus-galli, ECHCG); assay: as above; conditions: 14 days after application
Excerpt: as §1, §2, §3, §4, §5

[14] = system: green foxtail (Setaria viridis, SETVI); assay: as above; conditions: 14 days after application
Excerpt: as §1, §2, §3, §4, §5

[15] = system: upland rice (Oryza sp., var.Tebonnet, RICE); assay: Post-emerge greenhouse screening, crop safety (phytotoxicity rating); conditions: 14 days after application
Excerpt: as §1, §2, §3, §4, §5

[16] = system: soybean (Glycine max L., var. Pella 86, SOY); assay: as above; conditions: 14 days after application
Excerpt: as §1, §2, §3, §4, §5

[17] = system: redroot pigweed (Amaranthus retroflexus, AMARE); assay: Post-emerge greenhouse herbicide activity screening, phytotoxicity rating
Excerpt: as §1, §2, §3, §4, §5

[18] = system: common ragweed (Ambrosia artemisiifolia L., AMBEL); assay: as above
Excerpt: as §1, §2, §3, §4, §5

[19] = system: ivyleaf morningglory (Ipomoea hederacea, IPOHE); assay: as above; conditions: 14 days after application
Excerpt: as §1, §2, §3, §4, §5

[20] = system: johnsongrass (Sorghum halepense, SORHA); assay: as above; conditions: 14 days after application
Excerpt: as §1, §2, §3, §4, §5

[21] = system: velvetleaf (Abutilon theophrasti, ABUTH); assay: as above; conditions: 14 days after application
Excerpt: as §1, §2, §3, §4, §5

[22] = system: large crabgrass (Digitaria sanguinalis, DIGSA); assay: as above; conditions: 14 days after application
Excerpt: as §1, §2, §3, §4, §5

[23] = system: lambsquarters (Chenopodium album, CHEAL); assay: as above
Excerpt: as §1, §2, §3, §4, §5

[24] = system: sicklepod (Cassia obtusifolia, CASOB); assay: as above
Excerpt: as §1, §2, §3, §4, §5

[25] = system: barnyardgrass (Echinochloa crus-galli, ECHCG); assay: as above; conditions: 14 days after application
Excerpt: as §1, §2, §3, §4, §5

[26] = system: green foxtail (Setaria viridis, SETVI); assay: as above
Excerpt: as §1, §2, §3, §4, §5

[27] = 125 g ai/ha, 14 days after application
[28] = 250 g ai/ha, 14 days after application

Cn1c(C(F)(F)F)cc(=O)n(-c2cc(Oc3ccccc3[N+](=O)[O-])c(Cl)cc2F)c1=S [Compound 1-49]
95: ABUTH phytotoxicity rating (0-100 scale) ([9]; 125 g ai/ha) | DIGSA phytotoxicity rating (0-100 scale) ([10]; 125 g ai/ha)
35: RICE crop damage, phytotoxicity rating (0-100 scale) ([1]; 250 g ai/ha)
80: AMBEL phytotoxicity rating (0-100 scale) ([6]; 250 g ai/ha) | IPOHE phytotoxicity rating (0-100 scale) ([7]; 250 g ai/ha) | IPOHE phytotoxicity rating (0-100 scale) ([19]; 125 g ai/ha) | IPOHE phytotoxicity rating (0-100 scale) ([19]; 250 g ai/ha)
40: SORHA phytotoxicity rating (0-100 scale) ([8]; 125 g ai/ha)
45: ECHCG phytotoxicity rating (0-100 scale) ([13]; 125 g ai/ha)
70: AMBEL phytotoxicity rating (0-100 scale) ([6]; 125 g ai/ha) | CASOB phytotoxicity rating (0-100 scale) ([12]; 250 g ai/ha) | AMBEL phytotoxicity rating (0-100 scale) [18, 27] | AMBEL phytotoxicity rating (0-100 scale) [18, 28] | CASOB phytotoxicity rating (0-100 scale) ([24]; 62.5 g ai/ha)
15: SOY crop damage, phytotoxicity rating (0-100 scale) ([16]; 250 g ai/ha)
10: SOY crop damage, phytotoxicity rating (0-100 scale) ([16]; 125 g ai/ha)
30: RICE crop damage, phytotoxicity rating (0-100 scale) ([1]; 125 g ai/ha)
50: CASOB phytotoxicity rating (0-100 scale) ([12]; 125 g ai/ha)
60: SORHA phytotoxicity rating (0-100 scale) ([8]; 250 g ai/ha) | CASOB phytotoxicity rating (0-100 scale) ([24]; 31.3 g ai/ha)
75: IPOHE phytotoxicity rating (0-100 scale) ([7]; 125 g ai/ha) | CASOB phytotoxicity rating (0-100 scale) [24, 27] | CASOB phytotoxicity rating (0-100 scale) [24, 28]
100: AMARE phytotoxicity rating (0-100 scale) ([5]; 125 g ai/ha) | AMARE phytotoxicity rating (0-100 scale) ([5]; 250 g ai/ha) | ABUTH phytotoxicity rating (0-100 scale) ([9]; 250 g ai/ha) | CHEAL phytotoxicity rating (0-100 scale) ([11]; 125 g ai/ha) | CHEAL phytotoxicity rating (0-100 scale) ([11]; 250 g ai/ha) | SETVI phytotoxicity rating (0-100 scale) ([14]; 250 g ai/ha) | AMARE phytotoxicity rating (0-100 scale) [17, 28] | ABUTH phytotoxicity rating (0-100 scale) ([21]; 250 g ai/ha) | CHEAL phytotoxicity rating (0-100 scale) [23, 28]
25: RICE crop damage, phytotoxicity rating (0-100 scale) ([15]; 250 g ai/ha)
65: AMBEL phytotoxicity rating (0-100 scale) ([18]; 31.3 g ai/ha) | AMBEL phytotoxicity rating (0-100 scale) ([18]; 62.5 g ai/ha)
0: SOY crop damage, phytotoxicity rating (0-100 scale) ([2]; 125 g ai/ha) | SOY crop damage, phytotoxicity rating (0-100 scale) ([2]; 250 g ai/ha) | CORN crop damage, phytotoxicity rating (0-100 scale) ([3]; 125 g ai/ha) | CORN crop damage, phytotoxicity rating (0-100 scale) ([3]; 250 g ai/ha) | CORN crop damage, phytotoxicity rating (0-100 scale) ([4]; 125 g ai/ha) | CORN crop damage, phytotoxicity rating (0-100 scale) ([4]; 250 g ai/ha) | RICE crop damage, phytotoxicity rating (0-100 scale) ([15]; 125 g ai/ha) | SORHA phytotoxicity rating (0-100 scale) ([20]; 125 g ai/ha) | SORHA phytotoxicity rating (0-100 scale) ([20]; 250 g ai/ha) | DIGSA phytotoxicity rating (0-100 scale) ([22]; 125 g ai/ha) | DIGSA phytotoxicity rating (0-100 scale) ([22]; 250 g ai/ha) | ECHCG phytotoxicity rating (0-100 scale) ([25]; 125 g ai/ha) | ECHCG phytotoxicity rating (0-100 scale) ([25]; 250 g ai/ha) | SETVI phytotoxicity rating (0-100 scale) ([26]; 31.3 g ai/ha) | SETVI phytotoxicity rating (0-100 scale) ([26]; 62.5 g ai/ha) | SETVI phytotoxicity rating (0-100 scale) [26, 27] | SETVI phytotoxicity rating (0-100 scale) [26, 28]
99: DIGSA phytotoxicity rating (0-100 scale) ([10]; 250 g ai/ha) | SETVI phytotoxicity rating (0-100 scale) ([14]; 125 g ai/ha) | AMARE phytotoxicity rating (0-100 scale) [17, 27] | CHEAL phytotoxicity rating (0-100 scale) [23, 27]
98: ECHCG phytotoxicity rating (0-100 scale) ([13]; 250 g ai/ha) | AMARE phytotoxicity rating (0-100 scale) ([17]; 31.3 g ai/ha) | AMARE phytotoxicity rating (0-100 scale) ([17]; 62.5 g ai/ha) | ABUTH phytotoxicity rating (0-100 scale) ([21]; 125 g ai/ha) | CHEAL phytotoxicity rating (0-100 scale) ([23]; 31.3 g ai/ha) | CHEAL phytotoxicity rating (0-100 scale) ([23]; 62.5 g ai/ha)
